The target of this experiment is Human CARM1 (PRMT4) (Homo sapiens (Human), UniProt Q86X55). Nature of the experiment: CARM1 enzyme assay on peptide substrate (3H-SAM Flashplate). Conditions: Biochemical potencies, classification codes; read-out: Biochem IC50.
Human CARM1 (PRMT4), sequence (Q86X55 other isoform, or with tags, fused parts or gaps isoform Q86X55-1): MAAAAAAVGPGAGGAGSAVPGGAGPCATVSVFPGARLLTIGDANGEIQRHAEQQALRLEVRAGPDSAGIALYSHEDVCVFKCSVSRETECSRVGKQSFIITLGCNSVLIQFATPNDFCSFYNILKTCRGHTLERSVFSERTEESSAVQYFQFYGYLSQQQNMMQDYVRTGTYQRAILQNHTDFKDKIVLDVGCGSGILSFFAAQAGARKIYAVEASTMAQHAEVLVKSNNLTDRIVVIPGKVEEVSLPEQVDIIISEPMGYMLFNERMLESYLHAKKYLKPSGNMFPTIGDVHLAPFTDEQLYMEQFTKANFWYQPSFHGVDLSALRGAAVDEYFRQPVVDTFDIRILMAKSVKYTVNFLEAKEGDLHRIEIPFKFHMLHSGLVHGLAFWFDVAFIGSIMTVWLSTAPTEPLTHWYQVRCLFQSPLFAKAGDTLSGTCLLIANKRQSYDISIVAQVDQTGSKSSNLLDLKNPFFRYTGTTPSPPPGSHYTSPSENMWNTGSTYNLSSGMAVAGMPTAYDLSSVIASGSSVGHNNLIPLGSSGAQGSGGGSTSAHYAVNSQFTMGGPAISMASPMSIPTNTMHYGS
For orientation: IC50 means the concentration needed to halve the response being measured. With `CNC[C@@H](O)COc1ccc(Cl)c(-c2nc(-c3c(C)noc3C)c(C)c(N3CCc4ncccc43)n2)c1` [Example 199-3], the IC50 is less than 100 nM.
With `CNCC(O)COc1cccc(-c2nc(-c3c(C)noc3C)c(C)c(N3CCOC(C)(C)C3)n2)c1` (stereo not shown) [Example 200-1a], the IC50 is less than 100 nM.
To `CNC[C@@H](O)COc1ccc(C(F)(F)F)c(-c2nc(NC3CCOCC3)c(C)c(-c3c(C)noc3C)n2)c1` [Example 200-3] belongs less than 100 nM; to `CNCC(O)COc1cccc(-c2nc(NC3CCCN(C(=O)OC)C3)c(C)c(-c3c(C)noc3C)n2)c1` (stereo not shown) [Example 201-1a], less than 100 nM.
For the molecule `CNC[C@@H](O)COc1ccc(Cl)c(-c2nc(N[C@H]3CO[C@H](C)C3)c(Cl)c(-c3c(C)noc3C)n2)c1` [Example 201-3], the IC50 was less than 100 nM.
As for `CNCC(O)COc1cccc(-c2nc(NC3CCN(C(=O)OC)CC3)c(Cl)c(-c3c(C)noc3C)n2)c1` (stereo not shown) [Example 202-1a], the IC50 was less than 100 nM.
In the case of `CNC[C@@H](O)COc1ccc(Cl)c(-c2nc(N[C@H]3CN(C(=O)OC)C[C@@H]3F)c(C)c(-c3c(C)noc3C)n2)c1` [Example 202-3], the IC50 is less than 100 nM.
`CNCC(O)COc1cccc(-c2nc(NC3CCCN(CC(F)F)C3)c(C)c(-c3c(C)noc3C)n2)c1` (stereo not shown) [Example 203-1a]: the IC50 was less than 100 nM.
In the case of `CNC[C@@H](O)COc1ccc(Cl)c(-c2nc(N[C@H]3CN(C4CC4)C[C@@H]3F)c(C)c(-c3c(C)noc3C)n2)c1` [Example 203-3], the 50% inhibitory concentration (IC50) was less than 100 nM.
To `CCS(=O)(=O)N1CCCC(Nc2nc(-c3cccc(OCC(O)CNC)c3)nc(-c3c(C)noc3C)c2C)C1` (stereo not shown) [Example 204-1a] belongs less than 100 nM; to `CNC[C@@H](O)COc1ccc(C(F)(F)F)c(-c2nc(NC3CCN(C(=O)OC)CC3)c(C)c(-c3c(C)noc3C)n2)c1` [Example 204-3], less than 100 nM; to `CNCC(O)COc1cccc(-c2nc(NCC3CCN(CC(F)F)CC3)c(C)c(-c3c(C)noc3C)n2)c1` (stereo not shown) [Example 205-1a], less than 100 nM.
`CNC[C@@H](O)COc1ccc(Cl)c(-c2nc(-c3c(C)noc3C)c(C)c(C3CC3)n2)c1` [Example 205-3]: the half-inhibitory concentration (IC50) was less than 100 nM.
As for `CCOC(=O)N1CCOC[C@@H]1CNc1nc(-c2cccc(OCC(O)CNC)c2)nc(-c2c(C)noc2C)c1C` (stereo partly shown) [Example 206-1a], the IC50 was less than 100 nM.
As for `CNC[C@@H](O)COc1ccc(Cl)c(-c2nc(-c3c(C)noc3C)c(C)c(N3CC(F)C3)n2)c1` [Example 206-3], the concentration for half-maximal inhibition (IC50) is less than 100 nM.
As for `CNCC(O)COc1cccc(-c2nc(NC3CCNC[C@H]3F)c(C)c(-c3c(C)noc3C)n2)c1` (stereo partly shown) [Example 207-1a], the 50% inhibitory concentration (IC50) is less than 100 nM.
Regarding `CNC[C@@H](O)COc1ccc(Cl)c(-c2nc(-c3c(C)noc3C)c(C)c(N3CCC3C)n2)c1` (stereo partly shown) [Example 207-3], the IC50 is less than 100 nM.
For the molecule `CNCC(O)COc1cccc(-c2nc(NC3CCN(C(=O)OC(C)(C)C)C[C@H]3F)c(C)c(-c3c(C)noc3C)n2)c1` (stereo partly shown) [Example 208-1a], the half-inhibitory concentration (IC50) was less than 100 nM.
Regarding `CNC[C@@H](O)COc1ccc(Cl)c(-c2nc(N[C@H]3CCN(C)C[C@H]3F)c(Cl)c(-c3c(C)noc3C)n2)c1` [Example 208-3], the IC50 is less than 100 nM.
Take `CNCC(O)COc1cccc(-c2nc(-c3c(C)noc3C)c(C)c(N3CCO[C@@H](C)C3)n2)c1` (stereo partly shown) [Example 209-1a]: the IC50 is less than 100 nM.
Turning to `CNC[C@@H](O)COc1ccc(Cl)c(-c2nc(N[C@H]3COC[C@@H]3O)c(C)c(-c3c(C)noc3C)n2)c1` [Example 209-3], the IC50 is less than 100 nM.
To `CNCC(O)COc1cccc(-c2nc(Nc3cn(C)cn3)c(C)c(-c3c(C)noc3C)n2)c1` (stereo not shown) [Example 210-1a] belongs less than 100 nM.
As for `CNC[C@@H](O)COc1ccc(Cl)c(-c2nc(N[C@@H]3CCN(C)C[C@@H]3F)c(Cl)c(-c3c(C)noc3C)n2)c1` [Example 210-3], the figure is less than 100 nM; as for `CNCC(O)COc1cccc(-c2nc(-c3c(C)noc3C)c(C)c(N3CCO[C@H](C)C3)n2)c1` (stereo partly shown) [Example 211-1a], less than 100 nM; as for `CNC[C@@H](O)COc1ccc(Cl)c(-c2nc(N[C@@H]3CCN(C4CC4)C[C@@H]3F)c(Cl)c(-c3c(C)noc3C)n2)c1` [Example 211-3], less than 100 nM.
Take `CNCC(O)COc1cccc(-c2nc(NC3C4COCC43)c(C)c(-c3c(C)noc3C)n2)c1` (stereo not shown) [Example 212-1a]: the IC50 is less than 100 nM.
On to `CNC[C@@H](O)COc1ccc(Cl)c(-c2nc(N[C@H]3CC[C@@H](OC)C3)c(C)c(-c3c(C)noc3C)n2)c1` [Example 212-3], for which the half-inhibitory concentration (IC50) was less than 100 nM.
For the molecule `CNC[C@@H](O)COc1ccc(Cl)c(-c2nc(-c3c(C)noc3C)c(C)c(N(C)[C@H]3CC[C@@H](OC)C3)n2)c1` [Example 213-3], the IC50 is less than 100 nM.
Regarding `CNC[C@@H](O)COc1ccc(Cl)c(-c2nc(-c3c(C)noc3C)c(Cl)c(N3Cc4ccncc4C3)n2)c1` [Example 214-3], the IC50 is less than 100 nM.
To `CNCC(O)COc1cccc(-c2nc(Nc3nncs3)c(C)c(-c3c(C)noc3C)n2)c1` (stereo not shown) [Example 215-1a] belongs less than 100 nM; to `CNC[C@@H](O)COc1ccc(Cl)c(-c2nc(NC[C@H]3CCCO3)c(Cl)c(-c3c(C)noc3C)n2)c1` [Example 215-3], less than 100 nM; to `CNCC(O)COc1cccc(-c2nc(NC3CCCN(C(=O)N(C)C)C3)c(C)c(-c3c(C)noc3C)n2)c1` (stereo not shown) [Example 216-1a], less than 100 nM.
Turning to `CNC[C@@H](O)COc1ccc(Cl)c(-c2nc(N[C@H]3C[C@@H](OC)C3)c(Cl)c(-c3c(C)noc3C)n2)c1` [Example 216-3], the 50% inhibitory concentration (IC50) is less than 100 nM.
`CNCC(O)COc1cccc(-c2nc(Nc3nnc(C4CC4)s3)c(C)c(-c3c(C)noc3C)n2)c1` (stereo not shown) [Example 217-1a]: the half-inhibitory concentration (IC50) was less than 100 nM.
Regarding `CNC[C@@H](O)COc1ccc(Cl)c(-c2nc(N[C@H]3C[C@H](OC)C3)c(Cl)c(-c3c(C)noc3C)n2)c1` [Example 217-3], the IC50 was less than 100 nM.
For the molecule `CNCC(O)COc1cccc(-c2nc(N[C@H]3CCC[C@H]3O)c(C)c(-c3c(C)noc3C)n2)c1` (stereo partly shown) [Example 218-1a], the concentration for half-maximal inhibition (IC50) was less than 100 nM.
In the case of `CNCC(O)COc1ccc(Cl)c(-c2nc(NC3CC4(CC4)C3)c(C)c(-c3c(C)noc3C)n2)c1` (stereo not shown) [Example 218-3], the IC50 was less than 100 nM.
On to `CNCC(O)COc1cccc(-c2nc(NC3CCC[C@H]3O)c(C)c(-c3c(C)noc3C)n2)c1` (stereo partly shown) [Example 219-1a], for which the IC50 was less than 100 nM.
To `CNC[C@@H](O)COc1ccc(Cl)c(-c2nc(NC3CC(COC)C3)c(C)c(-c3c(C)noc3C)n2)c1` (stereo partly shown) [Example 219-3] belongs less than 100 nM.
To `CNCC(O)COc1cccc(-c2nc(N[C@@H]3CCOC[C@@H]3OC)c(C)c(-c3c(C)noc3C)n2)c1` (stereo partly shown) [Example 220-1a] belongs less than 100 nM; to `CNC[C@@H](O)COc1ccc(Cl)c(-c2nc(-c3c(C)noc3C)c(C)c(N(C)C3CC(COC)C3)n2)c1` (stereo partly shown) [Example 220-3], less than 100 nM.
Take `CNCC(O)COc1cccc(-c2nc(N[C@H]3C[C@H](C(=O)OC)C3)c(C)c(-c3c(C)noc3C)n2)c1` (stereo partly shown) [Example 221-1a]: the IC50 was less than 100 nM.
`CCOC(=O)N1CCC[C@H]1CCOc1nc(-c2cc(OC[C@H](O)CNC)ccc2Cl)nc(-c2c(C)noc2C)c1C` [Example 221-3]: the half-maximal inhibitory concentration (IC50) was less than 100 nM.
Turning to `CCO[C@H]1CCC[C@@H]1Nc1nc(-c2cc(OC[C@H](O)CNC)ccc2Cl)nc(-c2c(C)noc2C)c1C` [Example 222-3], the IC50 was less than 100 nM.
Consider `CNC[C@@H](O)COc1ccc(F)c(-c2nc(-c3c(C)noc3C)c(C)c(N3Cc4cnn(C)c4C3)n2)c1` [Example 223-3], for which the IC50 was less than 100 nM.
Regarding `CNCC(O)COc1cccc(-c2nc(N[C@@H]3CCNC[C@@H]3F)c(C)c(-c3c(C)noc3C)n2)c1` (stereo partly shown) [Example 224-1a], the concentration for half-maximal inhibition (IC50) is less than 100 nM.
Turning to `CNC[C@@H](O)COc1ccc(Cl)c(-c2nc(-c3c(C)noc3C)c(C)c(N3Cc4[nH]nc(C)c4C3)n2)c1` [Example 224-3], the IC50 was less than 100 nM.
For `CNCC(O)COc1cccc(-c2nc(N[C@@H]3CCN(C(=O)OC)C[C@@H]3F)c(C)c(-c3c(C)noc3C)n2)c1` (stereo partly shown) [Example 225-1a], the 50% inhibitory concentration (IC50) is less than 100 nM.
To `CNC[C@@H](O)COc1ccc(Cl)c(-c2nc(-c3c(C)noc3C)c(Cl)c(N3Cc4nccnc4C3)n2)c1` [Example 225-3] belongs less than 100 nM.
Turning to `CCOC(=O)N1CC[C@@H](Nc2nc(-c3cccc(OCC(O)CNC)c3)nc(-c3c(C)noc3C)c2C)[C@@H](F)C1` (stereo partly shown) [Example 226-1a], the IC50 was less than 100 nM.
On to `CNC[C@@H](O)COc1ccc(F)c(-c2nc(-c3c(C)noc3C)c(C)c(N3Cc4nccnc4C3)n2)c1` [Example 226-3], for which the concentration for half-maximal inhibition (IC50) was less than 100 nM.
On to `CNCC(O)COc1cccc(-c2nc(N[C@@H]3CCN(C(=O)OC(C)(C)C)C[C@@H]3F)c(C)c(-c3c(C)noc3C)n2)c1` (stereo partly shown) [Example 227-1a], for which the IC50 is less than 100 nM.
In the case of `CNC[C@@H](O)COc1ccc(F)c(-c2nc(-c3c(C)noc3C)c(C)c(N3CC4(CCOCC4)C3)n2)c1` [Example 227-3], the half-maximal inhibitory concentration (IC50) is less than 100 nM.
In the case of `CNCC(O)COc1cccc(-c2nc(N[C@@H]3CCN(C(=O)OC)C[C@H]3F)c(C)c(-c3c(C)noc3C)n2)c1` (stereo partly shown) [Example 228-1a], the IC50 is less than 100 nM.
With `CNC[C@@H](O)COc1ccc(Cl)c(-c2nc(NC[C@@H]3CCOC3)c(C)c(-c3c(C)noc3C)n2)c1` [Example 228-3], the concentration for half-maximal inhibition (IC50) was less than 100 nM.
As for `CCOC(=O)N1CC[C@@H](Nc2nc(-c3cccc(OCC(O)CNC)c3)nc(-c3c(C)noc3C)c2C)[C@H](F)C1` (stereo partly shown) [Example 229-1a], the figure is less than 100 nM.
`CNC[C@@H](O)COc1ccc(Cl)c(-c2nc(-c3c(C)noc3C)c(Cl)c(N3CC4(CCOCC4)C3)n2)c1` [Example 229-3]: the IC50 was less than 100 nM.
Turning to `CCS(=O)(=O)N1CCOC[C@@H]1CNc1nc(-c2cccc(OCC(O)CNC)c2)nc(-c2c(C)noc2C)c1C` (stereo partly shown) [Example 230-1a], the IC50 is less than 100 nM.
As for `CNC[C@@H](O)COc1ccc(Cl)c(-c2nc(NC3CC(C)C3)c(C)c(-c3c(C)noc3C)n2)c1` (stereo partly shown) [Example 230-3], the 50% inhibitory concentration (IC50) was less than 100 nM.
In the case of `CNCC(O)COc1cccc(-c2nc(N[C@H]3C[C@H](C(C)(C)O)C3)c(C)c(-c3c(C)noc3C)n2)c1` (stereo partly shown) [Example 231-1a], the IC50 was less than 100 nM.
`CNC[C@@H](O)COc1ccc(Cl)c(-c2nc(-c3c(C)noc3C)c(C)c(N3Cc4cn[nH]c4C3)n2)c1` [Example 231-3]: the IC50 is less than 100 nM.

These data come from patent US20230279020A9, “CARM1 INHIBITORS AND USES THEREOF” (Epizyme, Inc., priority 2013, published 2023).
